Data on 24 molecules can be found in patent US20250215013A1, “SUBSTITUTED TRICYCLIC COMPOUNDS AS PARP INHIBITORS AND THE USE THEREOF” (IMPACT THERAPEUTICS (SHANGHAI), INC., priority 2022, published 2025).

One experiment concerns the target PDE3A (Homo sapiens (Human), UniProt Q14432). The experiment can be described thus: PDE3A fluorescence polarization (FP) assay. The class given is biochemical. To be noted: PDE3A enzyme activity, FAM-cAMP substrate. (In general: Fluorescence polarisation rises when a labelled molecule tumbles more slowly, as on binding a larger partner.)
The next experiment concerns MDA-MB-436 cells. The experiment can be described thus: Growth inhibition assay against BRCA mutant human breast cancer MDA-MB-436 cell line (CCK-8). The class given is cell-based. Particulars: Homo sapiens, MDA-MB-436, […], proliferation of MDA-MB-436 cells, 7 days.
In experiment [1] the target is recombinant poly(ADP-ribose) polymerase 1 (PARP1) (Homo sapiens (Human), UniProt P09874).
The target of experiment [2] is recombinant poly(ADP-ribose) polymerase 2 (PARP2). The experiment can be described thus: PARP2 chemiluminescent assay. The class given is biochemical. To be noted: inhibition of PARP2 enzyme activity, chemiluminescence.

As a reminder, the IC50 is the midpoint of a concentration-inhibition curve.

recombinant poly(ADP-ribose) polymerase 1 (PARP1), sequence (P09874 whole entry): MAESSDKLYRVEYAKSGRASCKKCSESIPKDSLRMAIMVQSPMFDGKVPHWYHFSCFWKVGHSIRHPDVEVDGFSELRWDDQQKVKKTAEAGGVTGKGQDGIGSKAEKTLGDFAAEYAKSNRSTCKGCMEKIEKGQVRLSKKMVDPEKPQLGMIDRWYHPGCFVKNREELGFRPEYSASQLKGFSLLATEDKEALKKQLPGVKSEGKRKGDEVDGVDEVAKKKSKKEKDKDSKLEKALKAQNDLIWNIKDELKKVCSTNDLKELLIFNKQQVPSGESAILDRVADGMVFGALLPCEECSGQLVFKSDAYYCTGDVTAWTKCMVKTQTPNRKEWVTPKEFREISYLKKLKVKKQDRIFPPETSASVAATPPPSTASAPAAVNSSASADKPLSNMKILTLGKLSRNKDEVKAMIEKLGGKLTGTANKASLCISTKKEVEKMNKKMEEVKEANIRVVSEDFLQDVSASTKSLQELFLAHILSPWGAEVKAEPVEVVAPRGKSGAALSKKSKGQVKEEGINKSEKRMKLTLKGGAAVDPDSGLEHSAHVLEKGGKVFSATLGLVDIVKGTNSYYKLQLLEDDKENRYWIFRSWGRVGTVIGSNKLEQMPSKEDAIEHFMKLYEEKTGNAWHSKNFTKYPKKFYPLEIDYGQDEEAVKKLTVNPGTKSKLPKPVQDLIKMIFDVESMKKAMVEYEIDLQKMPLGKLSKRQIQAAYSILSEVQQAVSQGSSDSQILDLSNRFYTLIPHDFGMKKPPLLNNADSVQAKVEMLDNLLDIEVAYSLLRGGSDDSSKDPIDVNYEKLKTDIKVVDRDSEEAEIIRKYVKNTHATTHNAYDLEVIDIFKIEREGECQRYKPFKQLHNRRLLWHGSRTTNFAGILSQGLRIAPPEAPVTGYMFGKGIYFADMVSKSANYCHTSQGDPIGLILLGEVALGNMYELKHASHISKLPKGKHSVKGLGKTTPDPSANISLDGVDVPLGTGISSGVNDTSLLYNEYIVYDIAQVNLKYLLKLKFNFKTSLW
PDE3A, sequence (Q14432 whole entry): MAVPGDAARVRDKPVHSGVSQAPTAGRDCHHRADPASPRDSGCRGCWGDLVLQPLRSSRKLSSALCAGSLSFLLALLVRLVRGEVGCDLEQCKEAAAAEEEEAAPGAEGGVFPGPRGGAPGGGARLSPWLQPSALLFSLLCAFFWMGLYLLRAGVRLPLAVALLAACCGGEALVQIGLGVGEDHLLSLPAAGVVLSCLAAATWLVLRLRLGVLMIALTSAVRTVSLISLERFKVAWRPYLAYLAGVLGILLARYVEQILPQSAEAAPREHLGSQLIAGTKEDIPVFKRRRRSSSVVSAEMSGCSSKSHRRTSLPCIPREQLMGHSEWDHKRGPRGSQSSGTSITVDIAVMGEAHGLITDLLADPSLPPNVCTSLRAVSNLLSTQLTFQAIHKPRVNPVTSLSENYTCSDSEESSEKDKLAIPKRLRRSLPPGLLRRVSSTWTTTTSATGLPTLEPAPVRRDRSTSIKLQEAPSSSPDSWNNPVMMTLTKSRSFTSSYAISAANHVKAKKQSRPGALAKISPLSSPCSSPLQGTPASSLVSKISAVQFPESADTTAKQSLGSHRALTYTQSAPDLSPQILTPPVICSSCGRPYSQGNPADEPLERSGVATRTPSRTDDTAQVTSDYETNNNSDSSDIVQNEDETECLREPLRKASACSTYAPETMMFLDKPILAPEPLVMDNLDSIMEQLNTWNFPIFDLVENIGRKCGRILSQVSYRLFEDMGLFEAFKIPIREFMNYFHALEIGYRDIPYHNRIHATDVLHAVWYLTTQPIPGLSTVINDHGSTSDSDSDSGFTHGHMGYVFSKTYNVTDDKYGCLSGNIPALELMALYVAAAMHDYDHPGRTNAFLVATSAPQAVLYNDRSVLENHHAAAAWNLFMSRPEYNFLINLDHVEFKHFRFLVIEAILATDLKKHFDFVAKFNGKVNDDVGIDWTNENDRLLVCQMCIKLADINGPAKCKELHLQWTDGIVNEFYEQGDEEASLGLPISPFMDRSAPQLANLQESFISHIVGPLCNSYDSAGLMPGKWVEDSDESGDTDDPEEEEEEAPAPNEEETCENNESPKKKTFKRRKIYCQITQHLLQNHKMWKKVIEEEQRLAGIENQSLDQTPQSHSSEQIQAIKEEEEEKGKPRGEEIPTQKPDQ
Method for PDE3A: A PDE3A fluorescence polarization (FP) assay in a multi-step format was performed using black, round bottom 384-well plates (Corning, 4514). The testing compounds were serially diluted from stock solutions to 11 concentrations with a 3-fold dilution factor using DMSO. Fifty nl of compound dilutions was mixed with 5 μl of reaction buffer (10 mM Tris-HCl, pH 7.2, 10 mM MgCl2, 0.05% NaN3, 0.1% phosphate-free BSA) containing 0.2 μM FAM-cAMP (BPS, 60200) and 2 nM PDE3A (Sino Biological, 11908-H20B1) enzyme, and incubated for 60 min at 25° C. Afterwards, 15 μl binding agent mixture (Molecular Devices, R8124) was added to each well and the plate was incubated for 60 min at 25° C. The plate was loaded to a BMG PHERAstar FSX to read Fluorescence Polarization (FP) values at a setting of: Ex: 485 nm and Em: 520 nm. Emission light intensity with polarizers parallel (Emi) and emission light intensity with polarizers perpendicular (Emi) were recorded. The Polarization (mP) values were calculated using the following formula: mP=(SignalEml−SignalEm⊥)/(SignalEml+SignalEm⊥).
• 1) The inhibition % of a compound dose is calculated as:
[formula] • wherein mPMin and mPMax refer to the polarization readings in the condition of substrate only and substrate+enzyme, respectively. • 2) The IC50 values were calculated from non-linear curve fitting using following regression equation using a commercial curve fitting software GraphPad Prism 9.2.0.
[formula] • wherein, X refers to Log of compound concentration and Y refers to % Inhibition.

As for `CNC(=O)c1ccc(N2CCN(Cc3ccc4c(c3)[nH]c(=O)c3occc34)CC2)c(C)n1` [Example 2, 7-((4-(2-methyl-6-(methylcarbamoyl)pyridin-3-yl)piperazin-1-yl)methyl)furo[2,3-c]quinolin-4(5H)-one], on PDE3A, half-maximal inhibition (IC50) required 1.46 µM.
Same read-out and setting: with `CNC(=O)c1ccc(N2CCN(Cc3ccc4c(c3)[nH]c(=O)c3ccoc34)CC2)c(C)n1` [Example 6, 7-((4-(2-methyl-6-(methylcarbamoyl)pyridin-3-yl)piperazin-1-yl)methyl)furo[3,2-c]quinolin-4(5H)-one] the figure was 0.58 µM.
For the molecule `CNC(=O)c1ccc(N2CCN(Cc3cc(F)c4c(c3)[nH]c(=O)c3occc34)CC2)c(C)n1` [Example 40, 9-fluoro-7-((4-(2-methyl-6-(methylcarbamoyl)pyridin-3-yl)piperazin-1-yl)methyl)furo[2,3-c]quinolin-4(5H)-one], the IC50 at PDE3A is 0.69 µM; in the experiment with MDA-MB-436 cells it was 0.00248 µM.
The corresponding values for `CNC(=O)c1ccc(N2CCN(Cc3ccc4c(c3)[nH]c(=O)c3c(F)cnn34)CC2)c(F)n1` [Example 49, 7-((4-(2-fluoro-6-(methylcarbamoyl)pyridin-3-yl)piperazin-1-yl)methyl)-3-fluoropyrazolo[1,5-a]quinoxalin-4(5H)-one] are 0.88 µM and 0.00104 µM.
For `CNC(=O)c1ccc(N2CCN(Cc3ccc4c([nH]c(=O)c5c(Cl)cnn54)c3F)CC2)c(F)n1` [Example 60, 7-((4-(2-fluoro-6-(methylcarbamoyl)pyridin-3-yl)piperazin-1-yl)methyl)-6-fluoro-3-chloro-pyrazolo[1,5-a]quinoxalin-4(5H)-one] the same measures were more than 30 µM and 0.00141 µM.
The corresponding values for `O=C(NC1CC1)c1ccc(N2CCN(Cc3ccc4c([nH]c(=O)c5occc54)c3F)CC2)c(F)n1` [Example 67, 7-((4-(2-fluoro-6-(cyclopropylcarbamoyl)pyridin-3-yl)piperazin-1-yl)methyl)-6-fluorofuro[2,3-c]quinolin-4(5H)-one] are 13.9 µM and 0.00656 µM.
Consider `CNC(=O)c1ccc(N2CCN(Cc3ccc4c5c(c(=O)[nH]c4c3)CN(C)C5)CC2)c(C)n1` [Example 75, 7-((4-(6-methylcarbamoyl-2-methylpyridin-3-yl)piperazin-1-yl)methyl)-2-methyl-1,2,3,5-tetrahydro-4H-pyrrolo[3,4-c]quinolin-4-one], for which the half-maximal inhibitory concentration (IC50) amounted to 0.00838 µM in experiment [1], 2380 nM in experiment [2] and 0.0111 µM in the experiment with MDA-MB-436 cells.
The corresponding values for `CNC(=O)c1ccc(N2CCN(Cc3cc4[nH]c(=O)c5cn(C)nc5c4cc3F)CC2)c(C)n1` [Example 89, 7-((4-(2-methyl-6-(methylcarbamoyl)pyridin-3-yl)piperazin-1-yl)methyl)-8-fluoro-2-methyl-2,5-dihydro-4H-pyrazolo[4,3-c]quinolin-4-one] are 0.00581 µM, 3410 nM and 0.0119 µM.
For `CNC(=O)c1ccc(N2CCN(Cc3cc4[nH]c(=O)c5cn(C)nc5c4cc3F)CC2)c(F)n1` [Example 91, 7-((4-(2-fluoro-6-(methylcarbamoyl)pyridin-3-yl)piperazin-1-yl)methyl)-8-fluoro-2-methyl-2,5-dihydro-4H-pyrazolo[4,3-c]quinolin-4-one] the same measures were 0.00425 µM, 942 nM and 0.0208 µM.
As to `CNC(=O)c1ccc(N2CCN(Cc3ccc4c(c3)[nH]c(=O)c3[nH]ccc34)CC2)c(F)n1` [Example 99, 7-((4-(2-fluoro-6-(methylcarbamoyl)pyridin-3-yl)piperazin-1-yl)methyl)-3,5-dihydro-4H-pyrrolo[2,3-c]quinolin-4-one], the half-maximal inhibitory concentration (IC50) in experiment [1] is 0.00594 µM; in experiment [2], more than 10000 nM; in the experiment on MDA-MB-436 cells, 0.0538 µM.
`CNC(=O)c1ccc(N2CCN(Cc3ccc4c([nH]c(=O)c5occc54)c3C)CC2)c(F)n1` [Example 103, 7-((4-(2-fluoro-6-(methylcarbamoyl)pyridin-3-yl)piperazin-1-yl)methyl)-6-methylfuro[2,3-c]quinolin-4(5H)-one]: the results for the IC50 (in experiment [1]; in experiment [2]; in the experiment on MDA-MB-436 cells) were 0.00426 µM, 667 nM and 0.0124 µM, respectively.
For `CNC(=O)c1ccc(N2CCN(Cc3cc4[nH]c(=O)c5occc5c4cc3C)CC2)c(F)n1` [Example 104, 7-((4-(2-fluoro-6-(methylcarbamoyl)pyridin-3-yl)piperazin-1-yl)methyl)-8-methylfuro[2,3-c]quinolin-4(5H)-one] the same measures were 0.00585 µM, 487 nM and 0.032 µM.
For `CNC(=O)c1ccc(N2CCN(Cc3ccc4c(c3)[nH]c(=O)c3ccoc34)CC2)cn1` [Example 118, 7-((4-(6-(methylcarbamoyl)pyridin-3-yl)piperazin-1-yl)methyl)furo[3,2-c]quinolin-4(5H)-one] the same measures were 0.00053 µM, 273 nM and 0.00156 µM.
For `CNC(=O)c1ccc(N2CCN(Cc3cc4[nH]c(=O)n5nccc5c4cc3F)CC2)c(F)n1` [Example 120, 8-((4-(2-fluoro-6-(methylcarbamoyl)pyridin-3-yl)piperazin-1-yl)methyl)-9-fluoropyrazolo[1,5-c]quinazolin-5(6H)-one] the same measures were 0.00187 µM, 683 nM and 0.0236 µM.
Regarding `CNC(=O)c1ccc(N2CCN(Cc3cc(F)c4c(c3)[nH]c(=O)n3cc(C)nc43)CC2)c(C)n1` [Example 136, 8-((4-(2-methyl-6-(methylcarbamoyl)pyridin-3-yl)piperazin-1-yl)methyl)-2-methyl-10-fluoroimidazo[1,2-c]quinazolin-5(6H)-one], the IC50 worked out at 0.00177 µM in experiment [1], 931 nM in experiment [2] and 0.00104 µM with MDA-MB-436 cells.
The corresponding values for `CNC(=O)c1ccc(N2CCN(Cc3cc(F)c4c(c3)[nH]c(=O)n3cc(C)nc43)CC2)c(F)n1` [Example 137, 8-((4-(2-fluoro-6-(methylcarbamoyl)pyridin-3-yl)piperazin-1-yl)methyl)-2-methyl-10-fluoroimidazo[1,2-c]quinazolin-5(6H)-one] are 0.00216 µM, 266 nM and 0.00685 µM.
The corresponding values for `CNC(=O)c1ccc(N2CCN(Cc3ccc4c([nH]c(=O)c5cc(C)nn54)c3F)CC2)c(Cl)n1` [Example 151, 7-((4-(2-chloro-6-(methylcarbamoyl)pyridin-3-yl)piperazin-1-yl)methyl)-6-fluoro-2-methylpyrazolo[1,5-a]quinoxalin-4(5H)-one] are 0.0005 µM, 1210 nM and 0.00119 µM.
The corresponding values for `CNC(=O)c1ccc(N2CCN(Cc3ccc4c([nH]c(=O)c5c(C)cnn54)c3F)C[C@H]2C)c(F)n1` [Example 166, (R)-6-fluoro-7-((4-(2-fluoro-6-(methylcarbamoyl)pyridin-3-yl)-3-methylpiperazin-1-yl)methyl)-3-methylpyrazolo[1,5-a]quinoxalin-4(5H)-one] are 0.00021 µM, 801 nM and 0.0162 µM.
`CNC(=O)c1ccc2c(n1)OC[C@H]1CN(Cc3ccc4c([nH]c(=O)c5c(C)cnn54)c3F)CCN21` [Example 167, (R)-6-fluoro-3-methyl-7-((8-methylcarbamoyl-1,2,4a,5-tetrahydropyrazino[1,2-d]pyrido[2,3-b][1,4]oxazin-3(4H)-yl)methyl)pyrazolo[1,5-a]quinoxalin-4(5H)-one]: the figures for the half-maximal inhibitory concentration (IC50) (in experiment [1]; in experiment [2]; in the experiment with MDA-MB-436 cells) were 0.00033 µM, 397 nM and 0.0187 µM, respectively.
As to `CNC(=O)c1ccc(N2CCN(Cc3ccc4c([nH]c(=O)c5c(F)cnn54)c3F)CC2)c(Cl)n1` [Example 178, 7-((4-(2-chloro-6-(methylcarbamoyl)pyridin-3-yl)piperazin-1-yl)methyl)-3,6-difluoropyrazolo[1,5-a]quinoxalin-4(5H)-one], the IC50 is 0.00028 µM in experiment [1], 1390 nM in experiment [2] and 0.00079 µM in the experiment with MDA-MB-436 cells.
Regarding `CNC(=O)c1ccc(N2CCN(Cc3cc4[nH]c(=O)c5c(F)cnn5c4cc3F)CC2)c(Cl)n1` [Example 184, 7-((4-(2-chloro-6-(methylcarbamoyl)pyridin-3-yl)piperazin-1-yl)methyl)-3,8-difluoropyrazolo[1,5-a]quinoxalin-4(5H)-one], the IC50 in experiment [1] turned out to be 0.0005 µM; in experiment [2], 67.1 nM; in the experiment on MDA-MB-436 cells, 0.00241 µM.
On to `[2H]C([2H])([2H])NC(=O)c1ccc(N2CCN(Cc3ccc4c([nH]c(=O)c5c(F)cnn54)c3F)CC2)c(F)n1` [Example 185, 7-((4-(2-fluoro-6-((methyl-d3)carbamoyl)pyridin-3-yl)piperazin-1-yl)methyl)-3,6-difluoropyrazolo[1,5-a]quinoxalin-4(5H)-one], for which the IC50 in experiment [1] amounted to 0.00024 µM; in experiment [2], 431 nM; with MDA-MB-436 cells it was 0.00078 µM.
For `CNC(=O)c1ccc(N2CCN(Cc3ccc4c([nH]c(=O)c5c(Cl)c(C)nn54)c3F)CC2)c(F)n1` [Example 199, 6-fluoro-7-((4-(2-fluoro-6-(methylcarbamoyl)pyridin-3-yl)piperazin-1-yl)methyl)-2-methyl-3-chloropyrazolo[1,5-a]quinoxalin-4(5H)-one] the same measures were 0.00016 µM, 17.9 nM and 0.00111 µM.
The corresponding values for `CNC(=O)c1ccc(N2CCN(C(C)c3ccc4c([nH]c(=O)c5c(C)cnn54)c3F)CC2)c(F)n1` (stereo not shown) [Example 204, 6-fluoro-7-(1-(4-(2-fluoro-6-(methylcarbamoyl)pyridin-3-yl)piperazin-1-yl)ethyl)-3-methylpyrazolo[1,5-a]quinoxalin-4(5H)-one] are 0.00068 µM, more than 10000 nM and 0.0121 µM.
